Series [1] has as its system rat. To be noted: Sub-acute repeat dose toxicity; sprague dawley; Oral; Gavage/Intubation; dose end: 6 week; group: systemic; systemic / organ weight / liver / absolute + systemic / organ weight / liver / relative to body weight + systemic / pathology microscopic / ….
For series [2], the system named is rat. To be noted: Subchronic oral toxicity in rodents, sprague dawley, Gavage/Intubation, dose end: 13 week, group: systemic.
In series [3] the test system is mouse. To be noted: Subchronic oral toxicity in rodents, cd1, Gavage/Intubation, dose end: 13 week, group: systemic.
The subject of series [4] is primate. To be noted: Subchronic oral toxicity in nonrodent, macaque, Gavage/Intubation, dose end: 7 week, group: systemic, systemic / clinical chemistry / alkaline phosphatase (alp/alk) / alkaline phosphatase (alp/alk) + systemic / organ weight / liver / absolute….
Series [5] relates to rat. To be noted: Subchronic oral toxicity in rodents, wistar, Gavage/Intubation, dose end: 13 week, group: systemic.
In series [6] the test system is dog. To be noted: Subchronic oral toxicity in nonrodent, beagle, Gavage/Intubation, dose end: 13 week, group: systemic.
The subject of series [7] is rat. To be noted: Subchronic oral toxicity in rodents, sprague dawley, Feed, dose end: 90 day, group: systemic, systemic / pathology microscopic / kidney / basophilia + systemic / pathology microscopic / kidney / dilatation + systemic / pathology ….
For series [8], the system named is rat. To be noted: Combined chronic toxicity/carcinogenicity, sprague dawley, Oral, Feed, dose end: 2 year, group: systemic.
Series [9] deals with dog. To be noted: Subchronic oral toxicity in nonrodent, beagle, Feed, dose end: 13 week, group: systemic, systemic / in life observation / body weight / body weight + systemic / in life observation / body weight / body weight gain + systemic / ….
Series [10] deals with rat. To be noted: Prenatal developmental toxicity study, sprague dawley, Oral, Gavage/Intubation, dose end: 15 GD.
The test system of series [11] is rat. To be noted: Prenatal developmental toxicity study, sprague dawley, Oral, Gavage/Intubation, dose end: 15 GD. The source holds these as a separate data set.
Series [12] deals with rat. To be noted: Subchronic dermal toxicity, sprague dawley, Topical, dose end: 91 day, group: systemic, systemic / in life observation / clinical signs / erythema.
Series [13] deals with rabbit. To be noted: Prenatal developmental toxicity study; new zealand white; Oral; Gavage/Intubation; dose end: 18 GD; group: maternal; systemic / in life observation / clinical signs / general motor disturbances + systemic / in life observation / clinical signs / partial ….
Series [14] relates to rat. To be noted: Subchronic oral toxicity in rodents, sprague dawley, Feed, dose end: 13 week, group: systemic.
Series [15] relates to rat. To be noted: Chronic toxicity; sprague dawley; Oral; Gavage/Intubation; dose end: 6 month; group: systemic; systemic / clinical chemistry / creatinine / creatinine.
The subject of series [16] is dog. To be noted: Subchronic oral toxicity in nonrodent, beagle, Gavage/Intubation, dose end: 6 month, group: systemic.
For series [17], the system named is dog. To be noted: Chronic toxicity, beagle, Oral, Gavage/Intubation, dose end: 52 week, group: systemic.
In series [18] the test system is mouse. To be noted: Subchronic oral toxicity in rodents, cd1, Feed, dose end: 14 week, group: systemic.
The mark [19] stands for this setting: systemic / clinical chemistry / [other] / [other] + systemic / clinical chemistry / alanine aminotransferase (alt/sgpt) / alanine ….
Setting [20] is: systemic / hematology / mean corpuscular (cell) volume (mcv) / mean corpuscular (cell) volume (mcv) + systemic / hematology / mean ….
[21] abbreviates: systemic / clinical chemistry / albumin / albumin + systemic / clinical chemistry / protein / protein + systemic / hematology / platelet / ….
Setting [22] is: systemic / pathology microscopic / adrenal gland / vacuolization + systemic / pathology microscopic / liver / eosinophilic focus + systemic….
Where [23] appears, read: systemic / clinical chemistry / albumin / albumin + systemic / clinical chemistry / chloride / chloride + systemic / clinical chemistry / ….
Where [24] appears, read: systemic / clinical chemistry / albumin / albumin + systemic / clinical chemistry / protein / protein + systemic / in life observation / ….
[25] abbreviates: systemic / clinical chemistry / alanine aminotransferase (alt/sgpt) / alanine aminotransferase (alt/sgpt) + systemic / in life observation….
Setting [26] is: systemic / organ weight / adrenal gland / absolute.
The mark [27] stands for this setting: systemic / pathology microscopic / kidney / dilatation + systemic / pathology microscopic / kidney / fibrosis + systemic / clinical ….
Setting [28] is: group: developmental, developmental / developmental malformation / bone / incomplete ossification + developmental / developmental malformation / interparietal / ….
Where [29] appears, read: group: maternal, systemic / in life observation / food consumption / food consumption + systemic / pathology gross / kidney / enlarged.
[30] abbreviates: group: developmental, developmental / developmental malformation / bone / bent + developmental / developmental malformation / bone / unossified + developmental / ….
The mark [31] stands for this setting: group: maternal, systemic / in life observation / body weight / body weight + systemic / in life observation / clinical signs / reduced activity + systemic….
[32] abbreviates: systemic / clinical chemistry / creatinine / creatinine.
Where [33] appears, read: systemic / clinical chemistry / creatinine / creatinine + systemic / hematology / reticulocyte / reticulocyte + systemic / organ weight / ….
[34] abbreviates: systemic / organ weight / adrenal gland / relative to body weight + systemic / organ weight / heart / absolute + systemic / clinical ….
[35] abbreviates: systemic / organ weight / heart / absolute.
The mark [36] stands for this setting: systemic / organ weight / heart / absolute + systemic / clinical chemistry / alkaline phosphatase (alp/alk) / alkaline phosphatase (alp/alk….
[37] abbreviates: systemic / clinical chemistry / creatinine / creatinine + systemic / hematology / hematocrit (hct) / hematocrit (hct) + systemic / ….

Consider `CCc1cc(SCc2sc(-c3ccc(C(F)(F)F)cc3)nc2CN2CCN(c3ccc(OC)cc3)CC2)ccc1OCC(=O)O`, for which the LEL in series [1] came out at 5 mg/kg/day; in [2] (setting [20]), 30 mg/kg/day; in series [3] (setting [22]) it was 10 mg/kg/day; in series [4], 5 mg/kg/day. Besides, the LOAEL (commonly the lowest tested level that showed an adverse finding) in [1] is greater than 100 mg/kg/day; in [2] (setting [19]), greater than 1000 mg/kg/day; in series [3] (setting [21]) it was greater than 1000 mg/kg/day; in series [4] it was greater than 100 mg/kg/day. The NEL in series [1] is less than 5 mg/kg/day; in [2] (setting [20]) it was less than 30 mg/kg/day; in series [3] (setting [22]), less than 10 mg/kg/day; in [4], less than 5 mg/kg/day. The NOAEL (usually the highest tested level that showed no adverse finding) in series [1] is no less than 100 mg/kg/day; in [2] (setting [19]), no less than 1000 mg/kg/day; in series [3] (setting [21]) it was no less than 1000 mg/kg/day; in series [4], no less than 100 mg/kg/day.

Consider `CCN(C(=O)c1cc(C)cc(OC[C@H](C)Nc2ccncc2)c1)C(C)C.Cc1ccc(S(=O)(=O)O)cc1`, for which the lowest-observed-adverse-effect level (LOAEL) in series [5] (setting [23]) was greater than 40 mg/kg/day; in [6] (setting [25]), greater than 20 mg/kg/day. Besides, the NOAEL was no less than 40 mg/kg/day in series [5] (setting [23]) and no less than 20 mg/kg/day in series [6] (setting [25]). Moreover, the LEL was determined as 12 mg/kg/day in [5] (setting [24]) and 4 mg/kg/day in series [6] (setting [26]). Besides, the figures for the NEL in [5] (setting [24]) and in series [6] (setting [26]) were less than 12 mg/kg/day and less than 4 mg/kg/day, respectively.

Regarding `CCNc1nc(NC(C)C)[nH]c(=O)n1` [2-Hydroxyatrazine], the LEL worked out at 18.9 mg/kg/day in series [7]; 7.75 mg/kg/day in series [8] (systemic / pathology microscopic / kidney / dilatation + systemic / pathology microscopic / kidney / fibrosis + systemic / pathology gross…); 59.6 mg/kg/day in series [9]; 125 mg/kg/day in [10] (setting [28]); 125 mg/kg/day in [10] (setting [29]). In addition, the LOAEL in series [7] is 18.9 mg/kg/day; in [8] (systemic / pathology microscopic / kidney / dilatation + systemic / pathology microscopic / kidney / fibrosis), 7.75 mg/kg/day; in series [9] it was 59.6 mg/kg/day; in [10] (setting [28]) it was 125 mg/kg/day; in series [10] (group: maternal, systemic / in life observation / food consumption / food consumption), 125 mg/kg/day. Further, the NEL in [7] came to 6.3 mg/kg/day; in series [8] (setting [27]) it was 0.962 mg/kg/day; in series [9], 5.8 mg/kg/day; in series [10] (setting [28]) it was 25 mg/kg/day; in series [10] (setting [29]), 25 mg/kg/day. Besides, the NOAEL worked out at 6.3 mg/kg/day in [7]; 0.962 mg/kg/day in series [8] (setting [27]); 5.8 mg/kg/day in series [9]; 25 mg/kg/day in [10] (setting [28]); 25 mg/kg/day in series [10] (setting [29]).

For `N#CN=C([S-])[S-].[Na+].[Na+]` [Disodium cyanodithioimidocarbonate], the lowest-observed-adverse-effect level (LOAEL) in series [11] (group: developmental, developmental / developmental malformation / bone / bent + developmental / developmental malformation / bone / unossified) turned out to be 18 mg/kg/day; in series [11] (group: maternal, systemic / in life observation / body weight / body weight + systemic / in life observation / clinical signs / reduced activity) it was 18 mg/kg/day; in series [12] it was 25 mg/kg/day; in series [13], 10 mg/kg/day. The LEL in series [11] (setting [30]) is 18 mg/kg/day; in [11] (setting [31]) it was 18 mg/kg/day; in series [12], 25 mg/kg/day; in series [13] it was 10 mg/kg/day. Moreover, the NEL in series [11] (setting [30]) was 6 mg/kg/day; in [11] (setting [31]), 6 mg/kg/day; in [12], less than 25 mg/kg/day; in series [13], 3 mg/kg/day. The NOAEL in series [11] (setting [30]) was 6 mg/kg/day; in [11] (setting [31]), 6 mg/kg/day; in series [12], less than 25 mg/kg/day; in series [13], 3 mg/kg/day.

For the molecule `CC(=O)c1ccc2c(c1)[C@H](NC(=O)c1ccc(F)cc1)[C@@H](O)C(C)(C)O2` [Carabersat], the LEL in series [14] (setting [32]) worked out at 20 mg/kg/day; in series [15], 200 mg/kg/day; in [16] (systemic / organ weight / adrenal gland / relative to body weight + systemic / clinical chemistry / alkaline phosphatase (alp/alk) / …), 200 mg/kg/day; in series [17] (setting [35]) it was 20 mg/kg/day; in series [18] (setting [32]), 200 mg/kg/day. Besides, the NEL in series [14] (setting [32]) was less than 20 mg/kg/day; in series [15], 20 mg/kg/day; in [16] (systemic / organ weight / adrenal gland / relative to body weight + systemic / organ weight / heart / absolute), 20 mg/kg/day; in series [17] (setting [35]), less than 20 mg/kg/day; in series [18] (setting [37]), 20 mg/kg/day. The LOAEL in series [14] (setting [33]) is greater than 2000 mg/kg/day; in [15], greater than 2000 mg/kg/day; in series [16] (setting [34]), greater than 1000 mg/kg/day; in series [17] (setting [36]) it was greater than 1000 mg/kg/day; in series [18] (setting [37]), greater than 2000 mg/kg/day. Also, the NOAEL is no less than 2000 mg/kg/day in [14] (setting [33]); no less than 2000 mg/kg/day in series [15]; no less than 1000 mg/kg/day in series [16] (setting [34]); no less than 1000 mg/kg/day in [17] (setting [36]); no less than 2000 mg/kg/day in series [18] (setting [37]).

Values taken from EPA's ToxRefDB 2.
